Starred links: 1 amine or outer side, 2 acyl side, 3 side chain; linkers in the order of their positions; H or OH if unused. Positions of bridges follow the written chain, without caps; N, C: chain ends. Non-standard residues stand in square brackets, D forms with d. Residues, ends and D or L forms follow the SMILES beside them. Chains are numbered I, II in the order given. Actinocin(1to9) = Cc1c2oc3c(C)ccc(C(=O)[*:2])c3nc-2c(C(=O)[*:1])c(N)c1=O; NMeV = CN[C@H](C(=O)O)C(C)C; Sar = CNCC(=O)O
Target: recombinant CpLDH protein (Cryptosporidium parvum, UniProt Q9GT92, F198L/K295E/R251K)

| SMILES | MEAN CpLDH INHIBITION (%) |
| --- | --- |
| CC1=C2C(=CO[C@H](C)[C@H]2C)C(=O)C(C(=O)O)=C1O [NSC186] | -47.49% |
| O=C1C(=O)c2ccccc2C(O)=C1CCCc1ccc(Oc2ccccc2)cc1 [NSC377] | -0.53% |
| CC(=O)[O][Hg].c1ccc2c(c1)ccc1ccccc12 [NSC534] | -63.87% |
| Nc1nc2n[nH]nc2c(=O)[nH]1 [NSC749] | -18.77% |
| O=C(O)c1ccc(NC(c2ccccc2)c2ccc3cccnc3c2O)cc1 (centres unmarked) [NSC1011] | -0.99% |
| NC1(C(=O)O)CCCC1 [NSC1026] | -29.26% |
| CC(C)(Br)C(=O)C(Br)Br [NSC1027] | -2.97% |
| c1coc(CNc2ncnc3[nH]ncc23)c1 [NSC1620] | -4.87% |
| C1CCNCC1.S=C(S)N1CCCCC1 [NSC1906] | -58.60% |
| Cc1cc(O)c(C(C)C)cc1C1(c2cc(C(C)C)c(O)cc2C)OC(=O)c2ccccc21 [NSC2186] | -64.59% |
| CC(C)C1(Cl)CCC2C3(C)CCCC(C)(C(=O)O)C3CC(Cl)C2(Cl)C1Cl (centres unmarked) [NSC2979] | -29.91% |
| O=Nc1ccc(O)c2ncccc12 [NSC3852] | -37.64% |
| c1ccc(-c2cccc(-c3ccccn3)n2)nc1 [NSC3905] | -48.97% |
| C1COCCN1.S=C(S)N1CCOCC1 [NSC4114] | -42.22% |
| Cc1ccc2ccc3ccc(C)nc3c2n1 [NSC4280] | -27.03% |
| C=C(C)[C@@H]1CC[C@]2(CO)CC[C@]3(C)[C@H](CC[C@@H]4[C@@]5(C)CC[C@H](O)C(C)(C)[C@@H]5CC[C@]43C)[C@@H]12 [NSC4644] | -25.29% |
| Nc1nncs1 [NSC4728] | -23.83% |
| O=[N+]([O-])c1ccc(N=Nc2c(O)[nH]c3ccccc23)c([N+](=O)[O-])c1 [NSC4810] | -33.40% |
| CCN(CC)C(=S)[S-].[Na+] [NSC4857] | -37.64% |
| CO[C@H]1[C@@H](O)[C@@H](C)O[C@H](O[C@H]2[C@H](Oc3cccc4c(O)c5c(=O)oc6ccc(C)c7c(=O)oc(c34)c5c67)O[C@H](C)[C@H](O)[C@@H]2O)[C@@H]1O [NSC5159] | -38.07% |
| Nc1nc(N)c(N=Nc2ccccc2)c(=O)[nH]1 [NSC5200] | -51.63% |
| Nc1ccccc1N [NSC5354] | 0% |
| CC(=O)c1c(O)c(C)c(O)c2c1OC1=CC(=O)C(C(C)=O)C(=O)C12C (centres unmarked) [NSC5890] | -32.64% |
| O=C1c2cccc(O)c2C(=O)c2c(O)cccc21 [NSC7210] | -48.97% |
| C[C@@H]1O[C@@H](O[C@@H]2C=C3CC[C@@H]4[C@H](CC[C@]5(C)[C@@H](c6ccc(=O)oc6)CC[C@]45O)[C@@]3(C)CC2)[C@H](O)[C@H](O)[C@H]1O[C@@H]1O[C@H](CO)[C@@H](O)[C@H](O)[C@H]1O [NSC7525] | -34.67% |
| CO[C@H]1C[C@H](O[C@H]2CC[C@]3(C=O)[C@H]4CC[C@]5(C)[C@@H](C6=CC(=O)OC6)CC[C@]5(O)[C@@H]4CC[C@]3(O)C2)O[C@H](C)[C@H]1O[C@@H]1O[C@H](CO[C@@H]2O[C@H](CO)[C@@H](O)[C@H](O)[C@H]2O)[C@@H](O)[C@H](O)[C@H]1O [NSC7530] | -3.24% |

| SMILES | MEAN CpLDH INHIBITION (%) |
| --- | --- |
| CC(=O)O[C@H]1C[C@H](O[C@H]2[C@@H](O)C[C@H](O[C@H]3[C@@H](O)C[C@H](O[C@H]4CC[C@@]5(C)[C@H](CC[C@@H]6[C@@H]5CC[C@]5(C)[C@@H](C7=CC(=O)OC7)CC[C@]65O)C4)O[C@@H]3C)O[C@@H]2C)O[C@H](C)[C@H]1O[C@@H]1O[C@H](CO)[C@@H](O)[C@H](O)[C@H]1O [NSC7532] | -151.91% |
| Nc1ccc(N)c2c1C(=O)c1ccccc1C2=O [NSC7833] | -11.00% |
| COc1ccc2nc(C)cc(NCCCCCCCCCNc3cc(C)nc4ccc(OC)cc34)c2c1 [NSC10010] | -19.54% |
| CC(C)=CC1C(C(=O)O)C1(C)C (centres unmarked) [NSC11779] | -22.15% |
| CC1=C(O)c2ccccc2C(=O)C1=O [NSC11897] | -2.25% |
| CC(C)=CCC1=C(O)c2ccccc2C(=O)C1=O [NSC11905] | -39.26% |
| COc1cccc2c1cc([N+](=O)[O-])c1c(C(=O)O)cc3c(c12)OCO3 [NSC11926] | -19.30% |
| CN(C)CCOc1ccc(I)cc1Cc1ccccc1.Cl [NSC11930] | -34.92% |
| O=c1c(Br)c(-c2ccccc2)[nH]c2ccccc12 [NSC12825] | -13.98% |
| Nc1ccc2c(c1)S(=O)(=O)c1cc(N)ccc1-2 [NSC13966] | -21.73% |
| Cc1cc2cc3cc(C)c(N)cc3nc2cc1N.Cl [NSC13973] | -3.43% |
| CC1=CC(O)C(O)C2(C)C1CC1OC(=O)C(O)C3C(C)C(O)C4(O)OCC13C42 (centres unmarked) [NSC14974] | 0.167% |
| O=[N+]([O-])[O-].O=[N+]([O-])[O-].O=[N+]([O-])[O-].[Ga+3] [NSC15200] | -34.76% |
| CC[C@H](C)[C@@H]1NC(=O)[C@@H](NC(=O)c2c3nc4c(C(=O)N[C@@H]5C(=O)N[C@@H](C(C)C)C(=O)N6CCC[C@H]6C(=O)N(C)CC(=O)N(C)[C@@H](C(C)C)C(=O)O[C@@H]5C)ccc(C)c4oc-3c(C)c(=O)c2N)[C@@H](C)OC(=O)[C@H](C(C)C)N(C)C(=O)CN(C)C(=O)[C@@H]2CCCN2C1=O [NSC18268] (I: TIP[Sar][NMeV] / II: TVP[Sar][NMeV]; ester I:1-I:C, II:1-II:C; linker I:N-II:N via Actinocin(1to9)) | -2.01% |
| CC(C)c1cccc(O)c(=O)c1 [NSC18804] | -36.91% |
| CC(C)c1ccc(O)c(=O)cc1 [NSC18805] | -40.28% |
| CN(C)CCCN1c2ccccc2Sc2ccc3ccccc3c21 [NSC18891] | -7.99% |
| CCCCCCCCCCCCC(O)C(=O)O (centres unmarked) [NSC18938] | -83.85% |
| CCN(CC)CCOc1ccc(C(O)(Cc2ccc(OC)cc2)c2ccccc2)cc1 (centres unmarked) [NSC19857] | -57.96% |
| COC(=O)[C@@H]1[C@H](O)[C@H](C)[C@H](O)[C@H](C)/C=C\C=C(/C)C(=O)Nc2c(C)c(OC(C)=O)c3c(c2O)C(=O)C(C)=C2OCOC(=C23)/C(C)=C/[C@@](C)(O)[C@H](O)[C@@H](C)[C@H]1O [NSC19990] | -27.23% |
| Nc1nc2c(ncn2[C@@H]2O[C@H](CO)[C@@H](O)[C@H]2O)c(=O)[nH]1 [NSC19994] | -14.24% |
| CCCCOCc1cc(CN2CCN(C)CC2)c(O)c2ncccc12 [NSC20514] | -30.20% |
| C[C@]12CC[C@@H]3c4ccccc4CC[C@H]3[C@@H]1CC[C@@H]2O [NSC22194] | -50.61% |
| C[C@H](CN(C)C)C(=O)c1ccccc1C(=O)O [NSC22992] | -3.61% |
| CN(CCc1ccccn1)c1ccc2c(c1)C(=O)c1ccccc1-2 [NSC24048] | -65.48% |
| CN(C)CCCN1c2ccc3ccccc3c2Sc2cccc(Cl)c21 [NSC24113] | -11.52% |

| SMILES | MEAN CpLDH INHIBITION (%) |
| --- | --- |
| COc1cc([C@@H]2c3cc4c(c(O)c3C[C@H]3COC(=O)[C@@H]32)OCO4)cc(OC)c1O [NSC24817] | -20.22% |
| COc1cc([C@@H]2c3cc4c(c(O)c3C[C@H]3COC(=O)[C@@H]32)OCO4)cc(OC)c1OC [NSC24819] | -66.99% |
| CC(C)C1=CC2=CC[C@@H]3[C@](C)(CCC[C@@]3(C)C(=O)O)[C@H]2CC1 [NSC25149] | -16.60% |
| OC(CN1CCCCC1)c1ccc(/C=C/c2ccc(Cl)cc2)cc1 (centres unmarked) [NSC26040] | -70.84% |
| O=C1Nc2c(Cl)cc(Cl)cc2C1=O [NSC26045] | -41.99% |
| OCC1OC(n2cnc3c(SCc4ccccc4)ncnc32)C(O)C1O (centres unmarked) [NSC26273] | -4.046% |
| Cc1c2ccc3ccccc3c2c[n+]2ccccc12.[Cl-] [NSC28002] | -26.04% |
| Cl.Nc1nc(N)c2ncn(-c3ccccc3)c2n1 [NSC29603] | -54.90% |
| O=C([O][Hg][CH2]C1COC([CH2][Hg][O]C(=O)c2ccccc2)CO1)c1ccccc1 (centres unmarked) [NSC30916] | -5.35% |
| Nc1ccc2nc3ccc(=O)cc-3n(-c3ccccc3)c2c1 [NSC31702] | -41.86% |
| NC(=O)NO [NSC32065] | -2.35% |
| CC(/C=N/N=C(N)N)=N\N=C(N)N [NSC32946] | -50.60% |
| COc1c(O[C@@H]2O[C@H](CO)[C@@H](O)[C@H](O)[C@H]2O)cc2c(c1OC)-c1ccc(OC)c(=O)cc1[C@@H](NC(C)=O)CC2 [NSC32992] | -5.35% |
| Oc1ccc(-c2nc3ccccc3s2)cc1 [NSC33004] | -8.80% |
| COc1cc2c(c(OC)c1OC)-c1ccc(OC)c(=O)cc1[C@@H](NC(=O)c1ccccc1)CC2 [NSC33410] | -43.24% |
| CCN1C=C/C(=C\C=C\c2cc[n+](CC)c3ccccc23)c2ccccc21.[I-] [NSC34391] | -25.08% |
| COc1c2c(c(OC)c3c1c(=O)c1ccccc1n3C)OCO2 [NSC34757] | -24.18% |
| O=C(C[n+]1ccc2ccccc2c1)c1ccc2ccc3ccccc3c2c1 [NSC35489] | -39.94% |
| Nc1nc(SCCc2ccccc2)c2[nH]cnc2n1 [NSC35866] | -7.39% |
| O=S1(=O)CCN(c2ccccc2CC(c2c[nH]c3ccccc23)c2c[nH]c3ccccc23)CC1 [NSC35949] | -34.03% |
| C=C1C(=O)OC2CC1C(OC(C)=O)C/C(C)=C/CC/C(C)=C\CCC2(C)O (centres unmarked) [NSC36437] | -19.06% |
| C[C@@H]1C[C@H]2OC(=O)[C@@]3(C)CCC[C@@](C)([C@@H]23)[C@@]1(O)CCc1ccoc1 [NSC36693] | -16.69% |
| Nc1nc(SCc2ccccc2Cl)c2[nH]cnc2n1 [NSC36826] | -1.63% |
| COc1nc(N)nc2nc[nH]c12 [NSC37364] | -36.91% |
| O=C1C(CN2CCCCC2)CCCC1CN1CCCCC1 (centres unmarked) [NSC39202] | -37.56% |
